What was measured:
Mouse motor neurons = assay: Gene expression array and pathway analysis, motor neurons, LMW-DS 0.01 mg/ml 48 h; assay type: cell-based; conditions: for number of genes: abolished nutrient effect / number of genes: new effect induced by LMW-DS / number of genes: total / number of genes: enhanced response to nutrients / number of genes: not different from control / Activation z-score / Predicted activation state relative D2 control: motor neurons; for Activation z-score / Predicted activation state relative D2 control: D0 to LMW-DS treatment
Protocol: For each cell line, n=8 × 25 cm^2 culture flasks were set up. Two flasks were harvested for each cell type on the day of treatment (24 hours after seeding). This represents the Day0 time point. From the remaining flasks, three flasks were treated with Control Medium and three were treated with Culture Medium (CM) containing LMW-DS to give a final concentration of 0.01 mg/ml. Cells from the treated flasks were collected after 48 hours. Therefore the collected data represent (a) untreated cells (Day0 Controls and Day2 Controls) and (b) cells treated with LMW-DS (ILB®, Tikomed AB, Viken, Sweden, WO 2016/076780) for 48 hours (Day2 LMW-DS treated).
The culture medium was prepared according to Table 28.
Medium (see Table 28) was pre-warmed to 37° C. Cells were thawed in a 37° C. water bath for no longer than 2 min. 9 ml of media was gently added drop-wise. The cell suspension was mixed by inverting the tube carefully twice. The cells were counted with a Cellometer. The cells were centrifuged for 5 minutes at 200 x g. Supernatant was removed (to the last 0.5 ml) and cells were gently re-suspended by trituration. The cells from the 8 vials were mixed and distributed equally into the previously coated 25 cm^2 flasks (n=8). Cells were incubated at 37° C. with 5% CO2 for 24 hours before treatment.
LMW-DS was provided at a stock concentration of 20 mg/ml and was kept in a temperature monitored refrigerator at 4° C. A fresh 100x LMW-DS stock (1.0 mg/ml) was prepared in sterile DMEM-F12. The concentrated drug stock was sterile filtered and added to the respective culture media (19.6 ml CM and 0.4 ml LMW-DS stock solution). The Control was made using 19.6 ml CM and 0.4 ml of DMEM-F12. LMW-DS and CM were added to the respective flasks (5 ml each) to reach the 0.01 mg/ml concentration of LMW-DS in each dish with a total of 10 ml CM each.
CM was aspirated into a clean and labelled 15 ml Falcon tube. The flasks (without culture medium) were placed into the -80° C. freezer for 30 minutes. The CM in the Falcon tubes was spun at 3000 x g for 5 minutes. Supernatant was removed and the small pellet was re-suspended in 2.5 ml Trizol:Water (4:1) solution at room temperature (RT, ~22° C.).
Two aliquots of 1 ml lysate were removed from each sample and 200 µl of chloroform was added to each (0.2 ml of chloroform per 1 ml of TRIzol Reagent used during the cell lysis step) and the tube was shaken vigorously. Samples were stored at RT for 2-3 minutes and subsequently centrifuged at 12,000 x g for 15 minutes at 4° C.
The RNA was precipitated from the aqueous phase by adding an equal amount of 100% ethanol. The precipitated RNA was fixed onto a Spin Cartridge, washed twice and dried. The RNA was eluted in 50 µl warm RNase-Free Water. The amount and quality of the purified RNA was measured by Nanodrop. The RNA was stored at -80° C. before transfer to Source Bioscience for Array analysis.
The expression data were downloaded into separate files for each cell line. The ‘Background corrected’ expression is the data from the “gProcessedSignal” of the arrays that is the result of the background signal extracted from the actual signal of the relevant probe. This is the most often used variable in array analysis. The background corrected signal was log2 transformed for all samples for statistical analysis. To reduce the false discovery rate in the samples, the signals that were below ‘expression level’ were removed. The ‘below expression’ level was set at 5 for the log2 transformed expression values.
Based on the expression pattern of the Control probes on each array it was decided to carry out Median Centering for all arrays before analysis to reduce the variability of the results. […]

human PBMC = assay: Stimulated IL-6 release from human PBMC (ELISA); assay type: cell-based; conditions: 24 h
Protocol: Peripheral blood mononuclear cells (PBMC) were isolated from healthy donors through Ficoll-Paque PLUS (GE Healthcare; 11778538) density centrifugation. PBMC were cultured at 2×10^5 cells/well in the absence (unstimulated PBS vehicle controls) or presence of stimulation (LPS, peptidoglycan, pokeweed mitogen, PHA-L, CpG + IL-15, or Cytostim) in the absence (vehicle) or presence of LMW-DS (Tikomed AB, Viken, Sweden, WO 2016/076780) at three concentrations; 60 µg/ml, 200 µg/ml and 600 µg/ml for 24 hours at 37° C., 5% CO2. Following centrifugation, cell culture supernatants were removed and stored at -20° C. awaiting analysis for IL-6 by ELISA. Levels of IL-6 were quantified in the supernatant by ELISA (R&D systems; DY206) according to manufacturer’s instructions.

[1] = pathway analysis of gene expression

Substance: sodium salt of dextran sulfate [LMW-DS]
- number of differentially expressed genes (Mouse motor neurons; D0 control to D2 LMW-DS treated): 315
- number of differentially expressed genes (Mouse motor neurons; D0 control to D2 LMW-DS treated (second statement)): 425
- number of genes: abolished nutrient effect (Mouse motor neurons; no effect): 177
- number of genes: new effect induced by LMW-DS (Mouse motor neurons; no effect): 108
- number of genes: total (Mouse motor neurons; no effect): 285
- number of genes: abolished nutrient effect (Mouse motor neurons; significant downregulation): 47
- number of genes: enhanced response to nutrients (Mouse motor neurons; significant downregulation): 36
- number of genes: new effect induced by LMW-DS (Mouse motor neurons; significant downregulation): 375
- number of genes: not different from control (Mouse motor neurons; significant downregulation): 104
- number of genes: total (Mouse motor neurons; significant downregulation): 562
- number of genes: abolished nutrient effect (Mouse motor neurons; significant upregulation): 40
- number of genes: enhanced response to nutrients (Mouse motor neurons; significant upregulation): 103
- number of genes: new effect induced by LMW-DS (Mouse motor neurons; significant upregulation): 71
- number of genes: not different from control (Mouse motor neurons; significant upregulation): 75
- number of genes: total (Mouse motor neurons; significant upregulation): 289
- number of genes: abolished nutrient effect (Mouse motor neurons; total): 264
- number of genes: enhanced response to nutrients (Mouse motor neurons; total): 139
- number of genes: new effect induced by LMW-DS (Mouse motor neurons; total): 554
- number of genes: not different from control (Mouse motor neurons; total): 179
- number of genes: total (Mouse motor neurons; total): 1136
- amyloid-β production (Mouse motor neurons; [1]): preventing
- inhibition of glutamate production (Mouse motor neurons; [1]): not affected
- level of H2O2 (Mouse motor neurons; [1]): reduced
- Activation z-score (Mouse motor neurons; upstream regulator AGT): 2.631
- Predicted activation state relative D2 control (Mouse motor neurons; upstream regulator AGT): Activated
- Activation z-score (Mouse motor neurons; upstream regulator BMP4): 0.972
- Predicted activation state relative D2 control (Mouse motor neurons; upstream regulator BMP4): More activated relative to control
- Activation z-score (Mouse motor neurons; upstream regulator BMP6): 0.13
- Predicted activation state relative D2 control (Mouse motor neurons; upstream regulator BMP6): More activated relative to control
- Activation z-score (Mouse motor neurons; upstream regulator BMP7): 1.092
- Predicted activation state relative D2 control (Mouse motor neurons; upstream regulator BMP7): More activated relative to control
- Activation z-score (Mouse motor neurons; upstream regulator INHA): 0.588
- Predicted activation state relative D2 control (Mouse motor neurons; upstream regulator INHA): More activated relative to control
- IL-6 release (human PBMC; CpG 0.2 µM + IL-15, LMW-DS 60-600 µg/ml): not generally impacted
- IL-6 release (human PBMC; Cytostim 10 µl/ml, LMW-DS 60-600 µg/ml): not generally impacted
- IL-6 release (human PBMC; LPS 0.01 ng/ml, LMW-DS 60, 200, 600 µg/ml): concentration dependent and statistically significant reduction
- IL-6 release (human PBMC; PHA-L 1.0 µg/ml, LMW-DS 60-600 µg/ml): inhibited significantly in a concentration-dependent manner
- IL-6 release (human PBMC; higher concentration of CpG (1.0 µM) + IL-15, LMW-DS 60-600 µg/ml): no general impact
- IL-6 release (human PBMC; higher concentration of Cytostim (30 µl/ml), LMW-DS 60-600 µg/ml): no general impact
- IL-6 release (human PBMC; peptidoglycan 30 ng/ml, LMW-DS 60-600 µg/ml): little evidence
- IL-6 release (human PBMC; pokeweed mitogen 1.0 µg/ml, LMW-DS 60-600 µg/ml): not impacted generally

Reference: US20230346827A1 (priority 2020, published 2023)
